Data as given in BindingDB's records for doi:10.1021/acs.biochem.6b00943 (University of Maryland, 2017).
Values joined by “and” are separate entries in the source; they are usually repeats but may differ in a detail not shown here. Equal values may be shown once.

Biological target: Reverse transcriptase protein (Human immunodeficiency virus 1, UniProt Q9WJQ1)
Experiment: HIV-1 RT Inhibitory Assay
Conditions: 25 °C
Procedure: The final pH of the reactions was 7.7. After extension for 3 min, the reactions were stopped by adding 12.5 μL of 2× gel loading buffer and the samples were resolved in a 16% denaturing polyacrylamide−7 M urea gel.

Cc1ccnc2c1NC(=O)c1cccnc1N2C1CC1 [BI-RG-587]
IC50: 16 µM and 4.3 µM
